Results published in US6906061B2, “Pharmaceutical agent containing Rho kinase inhibitor” (Mitsubishi Pharma Corporation, priority 1996, dated 2005).
pIC50: −log10 of the molar value.

What was measured:
[1] = test system: Bovine Aorta Thoracia Rho Kinase; assay: Rho kinase inhibitory action (inhibition of bovine aorta thoracia Rho kinase); format: biochemical
Protocol: Rho Kinase Inhibitory Action (Inhibition of Bovine Aorta Thoracia Rho Kinase)
The Rho kinase was prepared from bovine aorta of thorax by partial purification as in the following. The artery was minced and homogenized with a 9-fold amount of 50 mM Tris-hydroxymethylaminomethane (Tris) (pH=7.4), 1 mM dithiothreitol, 1 mM EGTA, 1 mM EDTA, 100 μM p-amidinophenylmethylsulfonyl fluoride, 5 μM E-64, 5 μM leupeptine and 5 μM pepstatin A. The homogenate was centrifuged (10,000×g, 30 minutes) to give supernatant. The supernatant was adsorbed onto a hydroxyapatite column. The column was washed with 0.2M phosphate buffer (pH=6.8). The standard product of Rho kinase was eluted with 0.4M phosphate buffer (pH=6.8). The Rho kinase was assayed as follows.
A reaction mixture (total amount 50 μl) containing 50 mM Tris, 1 mM EDTA, 5 mM MgCl2, 50 μg/ml histone, 10 μM GTPγS, 100 μg/ml Rho, 2 μM [^32P]ATP, the Rho kinase (3 μl) prepared in the above and the test compound was reacted at 30° C. for 5 minutes. The reaction was terminated by the addition of 25% trichloroacetic acid (TCA) solution (1 ml) and the mixture was stood at 4° C. for 30 minutes. Then, the mixture was filtered through a membrane filter (HAWP type, Millipore), and the radioactivity of the filter was counted on a liquid scintillation counter. The inhibitory action of the test compound was calculated from the following formula based on the comparison of the radioactivity with the sample without the test compound (control).

[2] = test system: thoractic aorta ring contracted with phenylephrine; assay: Vasodilating action on phenylephrine-contracted thoracic aorta rings; settings: Oryctolagus cuniculus; rabbit aortic ring, phenylephrine 10^−6 M contraction; concentration for 50% relaxation; read-out: Vasorelaxing action
Protocol: Male rabbits (body weight 1.9-3.0 kg) were anesthetized with pentobarbital sodium and exsanguinated, whereafter thoractic aorta was removed. An about 2 mm width aortic ring samples were prepared and hung in a Magnus bath (40 ml) filled with Krebs-Henseleit solution (37° C., NaCl 117 mM; KCl 4.7 mM; CaCl2 2.5 mM; MgSO4 1.2 mM; NaHCO3 24.8 mM; KH2PO4 1.2 mM; glucose 11.0 mM) at a load of 2 g. The Magnus bath was constantly bubbled with a mixed gas (95% O2+5% CO2 gas). The tension of the preparation was measured with an isomeric transducer (TB-611T, Nippon Koden). The preparation was contracted with phenylephrine (10^−6 M) and, after the contraction was stabilized, the test compound was added accumulatively and relaxing action was observed.

mouse femoral bone = assay: Inhibition of bone resorption (in vitro), mouse femoral bone; settings: 144 h, 6 days incubation of ICR mouse femoral bone
In short: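 Femurs from 3–6-week male ICR mice, marrow flushed, cultured 6 days in F12 with 10% FBS under 5% CO2 with test compound (DMSO-dissolved; DMSO-only controls). Calcium released into supernatant measured by o-cresolphthalein chelate method; inhibition calculated against untreated bone, n=4 per group.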

[3] = test system: BALB/c spleen cells stimulated with C57BL/6 spleen cells; assay: Inhibition of mouse allogenic mixed lymphocyte reaction; format: cell-based; settings: Mus musculus, Lymphocyte, 96 h; 4 days culture, MTT; read-out: Mouse allogenic MLR inhibitory activity IC50
Protocol: Inhibition of Mouse Allogenic Mixed Lymphocyte Reaction
A mouse allogenic mixed lymphocyte reaction (hereinafter to be referred to as mouse allogenic MLR) was performed by mixed culture (equal ratio) of the spleen cell of BALB/c mice as the reaction cell and the spleen cell of C57BL/6 mice treated with mitomycin C as stimulated cell.
The reaction cells were prepared by the following method. Spleen was removed from 5-6 week old BALB/c mice and treated with RPMI1640 medium (containing kanamycin sulfate (60 μg/ml), penicillin G potassium (100 units/ml), N-2-hydroxyethylpiperazine-N′-2-ethanesulfonate (10 mM), 0.1% sodium hydrogencarbonate and L-glutamin (2 mM)) supplemented with 5% heat inactivated fetal bovine serum (FBS) to give a single cell suspension of the spleen cell. After hemolysis treatment, the suspension was adjusted to10^7 cells/ml with RPMI1640 medium containing 10^−4 M 2-mercaptoethanol and 10% FBS and used as a reaction cell suspension.
The reaction cell suspension (50 μl) prepared by the above method, stimulated cell suspension (50 μl) and the test compound (100 μl) prepared using RPMI1640 medium containing 10% FBS were added to a 96 well plate and incubated at 37° C. under 5% CO2 gas, 95% air for 4 days.
A pigment assay using 3-(4,5-dimethylthiazol-2-yl)-2,5-diphenyltetrazolium bromide (MTT) was applied for the determination of lymphocyte transformation reaction.
After the completion of culture, the supernatant (100 μl) in each well was removed, and 5 mg/ml MTT solution (20 μl) was added to each well, which was followed by incubation at 37° C. for 4 hours. Then, a 0.01 N hydrochloric acid solution (100 μl) containing 10% sodium dodecyl sulfate was added and the mixture was incubated at 37° C. overnight. The resulting purple crystals of formazan was dissolved and absorbance at 550 nm was measured using a microplate absorption meter, which was used as the index of lymphocyte transformation reaction of the mouse allogenic MLR. The inhibition of mouse allogenic MLR was evaluated by calculating the inhibition percentage by the following formula The results are shown in Table 7.

[4] = test system: normal human umberical vascular endothelial cells; assay: Inhibition of angiogenesis (lumen formation in vascular endothelial cells); format: cell-based; settings: 18 hours, compared with the control, number rises with inhibition of lumen formation
Protocol: Inhibition of Angiogenesis
The inhibition of angiogenesis was evaluated by using the inhibition of lumen formation in vascular endothelial cell as an index. To be specific, normal human umberical vascular endothelial cells (KURABO […] LTD.) were suspended in E-GMUV medium at 5.5×10^4 cells/ml and 400 μl therefrom was added on matrigel plate (EHS sarcoma-derived reconstructed basement membrane, Collaborative Biomedical Products). Then, the test compound (1 mM solution, 4 μl) was added and the cells were incubated at 37° C. under 5% CO2 gas for 18 hours. After the completion of the incubation, the number of lumen per predetermined area was counted under a microscope. Inasmuch as the number of lumen increases by the inhibition of lumen formation, the test compound was evaluated by comparison of the number of lumen with the control.

SMILES | Inhibition (%) ([1]; test compound 10 μM) | pIC50 [2] | inhibition at 100 µM (mouse femoral bone) [%] | pIC50 [3] | Number of lumen (10 μM) [4] [%] | Inhibition (%) ([1]; test compound 1 μM)
CC(N)[C@H]1CC[C@H](C(=O)Nc2ccncc2)CC1 (single isomer, unassigned; (+)) [Compound 80.2HCl.H2O, (+)-trans-4-(1-aminoethyl)-1-(4-pyridylcarbamoyl)cyclohexane] | 100 | 6.15 | 40.9 | 5.02 | 174 | 
CC(N)[C@H]1CC[C@H](C(=O)Nc2ccnc3[nH]ccc23)CC1 (single isomer, unassigned; (+)) [Compound 109.2HCl, (+)-trans-N-(1H-pyrrolo[2,3-b]pyridin-4-yl)-4-(1-aminoethyl)cyclohexanecarboxamide] | 100 | 7.00 | 42.6 | 5.80 | 153 | 81
